Data taken from patent US20240293558A1, “KRAS INHIBITOR CONJUGATES” (Erasca, Inc., priority 2021, published 2024).

Assays:
[1] = target: KRAS G12D (Homo sapiens, UniProt P01116, G12D); assay: In-vitro RAS-RAF binding assay (RRB), HTRF/FRET; type: biochemical; design: Biotinylated KRAS protein amino acids 1-169 (produced at Erasca); made in house; details: Table 2, average of multiple runs of each compound; read-out: Inhibition of RAS-RAF Binding (in-vitro) KRAS (G12D) IC50
In short: (§1)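 Biotinylated KRAS 1-169 (streptavidin-terbium donor, 30 nM) and GST-cRAF RBD (anti-GST d2 acceptor, 30 nM) in HEPES pH 7.5, NaCl, MgCl2, DTT buffer. After compound incubation, SOS1 catalytic domain plus GTPgS drive 60 min nucleotide exchange. HTRF FRET read at equilibrium, in duplicate.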

[2] = target: T1, KRAS (WT) (Homo sapiens, UniProt P01116); assay: In-vitro RAS-RAF binding assay (RRB), HTRF/FRET; type: biochemical; details: Table 2, average of multiple runs of each compound; read-out: Inhibition of RAS-RAF Binding (in-vitro) KRAS (WT) IC50
T1 construct: Biotinylated KRAS protein amino acids 1-169 (produced at Erasca); made in house
T1 sequence (P01116 1-169 isoform P01116-2): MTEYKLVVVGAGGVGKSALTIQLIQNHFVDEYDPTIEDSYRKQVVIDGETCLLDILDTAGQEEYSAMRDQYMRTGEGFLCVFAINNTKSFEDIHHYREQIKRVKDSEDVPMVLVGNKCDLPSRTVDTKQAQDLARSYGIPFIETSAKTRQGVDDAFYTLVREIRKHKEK
In short: as §1

[3] = target: T2, KRas G12D fused to HiBiT peptide (Homo sapiens, UniProt P01116, G12D); assay: ASPC-1 HiBit assay to determine G12D degradation; type: cell-based; details: AsPC-1 HiBiT cells, 24-hour incubation; read-out: ASPC-1 HiBit DC50 (C)
T2 construct: endogenous in cells; host or cells: AsPC-1 HiBiT knock-in single clone (Cas9 RNP + ssODN)
T2 sequence (P01116 1-188 isoform P01116-2 G12D): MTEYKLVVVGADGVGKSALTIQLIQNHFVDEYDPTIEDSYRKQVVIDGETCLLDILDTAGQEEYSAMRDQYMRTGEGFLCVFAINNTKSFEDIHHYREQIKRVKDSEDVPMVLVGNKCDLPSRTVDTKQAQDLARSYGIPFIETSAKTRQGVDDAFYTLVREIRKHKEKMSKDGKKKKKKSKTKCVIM
In short: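 Homozygous AsPC-1 clone with N-terminal HiBiT knock-in on endogenous KRas G12D, 24 h compound exposure, top dose 10 μM, 3-fold, 10 points, 1% DMSO. Lytic HiBiT luminescence normalised to DMSO and inhibitor controls gives % degradation; DC50 from 4-parameter fit after hook-effect points removed.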

Sequence of KRAS G12D (P01116 1-169 isoform P01116-2 G12D): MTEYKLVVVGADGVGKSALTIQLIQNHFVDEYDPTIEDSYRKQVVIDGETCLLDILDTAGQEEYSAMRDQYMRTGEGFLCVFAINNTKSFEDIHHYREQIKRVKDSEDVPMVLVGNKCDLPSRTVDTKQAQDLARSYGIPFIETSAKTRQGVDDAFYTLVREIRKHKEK

IC50 [1] [nM]	IC50 [2] [nM]	DC50 [3] [nM]	SMILES
28	> 10000	582	CC(C)[C@@H](C(=O)N1C[C@H](O)C[C@H]1C(=O)N[C@@H](C)c1ccc(-c2c(F)cc(F)cc2F)cc1)c1cc(OCC2CCN(CCOc3nc(N4CC5CCC(C4)N5)c4cc(Cl)c(-c5ccc(F)c6sc(N)c(C#N)c56)c(F)c4n3)CC2)no1 [Example 71, (2S,4R)-1-((2R)-2-(3-((1-(2-((7-(2-amino-3-cyano-7-fluorobenzo[b]thiophen-4-yl)-4-(3,8-diazabicyclo[3.2.1]octan-3-yl)-6-chloro-8-fluoroquinazolin-2-yl)oxy)ethyl)piperidin-4-yl)methoxy)isoxazol-5-yl)-3-methylbutanoyl)-4-hydroxy-N-((S)-1-(2′,4′,6′-trifluoro-[1,1′-biphenyl]-4-yl)ethyl)pyrrolidine-2-carboxamide]
29.4	6730	528	CC(C)[C@@H](C(=O)N1C[C@H](O)C[C@H]1C(=O)N[C@@H](C)c1ccc(-c2c(F)cc(F)cc2F)cc1)c1cc(OCC2(C)CCN(CCOc3nc(N4CC5CCC(C4)N5)c4cc(Cl)c(-c5ccc(F)c6sc(N)c(C#N)c56)c(F)c4n3)CC2)no1 [Example 72, (2S,4R)-1-((2R)-2-(3-((1-(2-((7-(2-amino-3-cyano-7-fluorobenzo[b]thiophen-4-yl)-4-(3,8-diazabicyclo[3.2.1]octan-3-yl)-6-chloro-8-fluoroquinazolin-2-yl)oxy)ethyl)-4-methylpiperidin-4-yl)methoxy)isoxazol-5-yl)-3-methylbutanoyl)-4-hydroxy-N-((S)-1-(2′,4′,6′-trifluoro-[1,1′-biphenyl]-4-yl)ethyl)pyrrolidine-2-carboxamide]
47.6	> 10000	349	CC(C)[C@@H](C(=O)N1C[C@H](O)C[C@H]1C(=O)N[C@@H](C)c1ccc(-c2c(F)cccc2F)cc1)c1cc(OCC2(F)CCN(CCOc3nc(N4CC5CCC(C4)N5)c4cc(Cl)c(-c5ccc(F)c6sc(N)c(C#N)c56)c(F)c4n3)CC2)no1 [Example 73, (2S,4R)-1-((2R)-2-(3-((1-(2-((7-(2-amino-3-cyano-7-fluorobenzo[b]thiophen-4-yl)-4-(3,8-diazabicyclo[3.2.1]octan-3-yl)-6-chloro-8-fluoroquinazolin-2-yl)oxy)ethyl)-4-fluoropiperidin-4-yl)methoxy)isoxazol-5-yl)-3-methylbutanoyl)-N-((S)-1-(2′,6′-difluoro-[1,1′-biphenyl]-4-yl)ethyl)-4-hydroxypyrrolidine-2-carboxamide]
18.1	962	185	CC(C)[C@@H](C(=O)N1C[C@H](O)C[C@H]1C(=O)N[C@@H](C)c1ccc(-c2c(F)cccc2F)cc1)c1cc(OCC2(C)CCN(CCOc3nc(N4CC5CCC(C4)N5)c4cc(C(F)(F)F)c(-c5ccc(F)c6sc(N)c(C#N)c56)c(F)c4n3)CC2)no1 [Example 74, (2S,4R)-1-((2R)-2-(3-((1-(2-((7-(2-amino-3-cyano-7-fluorobenzo[b]thiophen-4-yl)-4-(3,8-diazabicyclo[3.2.1]octan-3-yl)-8-fluoro-6-(trifluoromethyl)quinazolin-2-yl)oxy)ethyl)-4-methylpiperidin-4-yl)methoxy)isoxazol-5-yl)-3-methylbutanoyl)-N-((S)-1-(2′,6′-difluoro-[1,1′-biphenyl]-4-yl)ethyl)-4-hydroxypyrrolidine-2-carboxamide]
23.9	836	843	CC(C)[C@@H](C(=O)N1C[C@H](O)C[C@H]1C(=O)N[C@@H](C)c1ccc(-c2c(F)cc(F)cc2F)cc1)c1cc(N2CC3(CCN(CCOc4nc(N5CC6CCC(C5)N6)c5cc(C(F)(F)F)c(-c6ccc(F)c7sc(N)c(C#N)c67)c(F)c5n4)CC3)C2)no1 [Example 75, (2S,4R)-1-((2R)-2-(3-(7-(2-((7-(2-amino-3-cyano-7-fluorobenzo[b]thiophen-4-yl)-4-(3,8-diazabicyclo[3.2.1]octan-3-yl)-8-fluoro-6-(trifluoromethyl)quinazolin-2-yl)oxy)ethyl)-2,7-diazaspiro[3.5]nonan-2-yl)isoxazol-5-yl)-3-methylbutanoyl)-4-hydroxy-N-((S)-1-(2′,4′,6′-trifluoro-[1,1′-biphenyl]-4-yl)ethyl)pyrrolidine-2-carboxamide]
21.9	1900	259	CC(C)[C@@H](C(=O)N1C[C@H](O)C[C@H]1C(=O)N[C@@H](C)c1ccc(-c2c(F)cc(F)cc2F)cc1)c1cc(OCC2(C)CCN(CCOc3nc(N4CC5CCC(C4)N5)c4cc(C(F)(F)F)c(-c5ccc(F)c6sc(N)c(C#N)c56)c(F)c4n3)CC2)no1 [Example 76, (2S,4R)-1-((2R)-2-(3-((1-(2-((7-(2-amino-3-cyano-7-fluorobenzo[b]thiophen-4-yl)-4-(3,8-diazabicyclo[3.2.1]octan-3-yl)-8-fluoro-6-(trifluoromethyl)quinazolin-2-yl)oxy)ethyl)-4-methylpiperidin-4-yl)methoxy)isoxazol-5-yl)-3-methylbutanoyl)-4-hydroxy-N-((S)-1-(2′,4′,6′-trifluoro-[1,1′-biphenyl]-4-yl)ethyl)pyrrolidine-2-carboxamide]
17.6	1100	330	CC(C)[C@@H](C(=O)N1C[C@H](O)C[C@H]1C(=O)N[C@@H](C)c1ccc(-c2c(F)cccc2F)cc1)c1cc(N2CC3(CCN(CCOc4nc(N5CC6CCC(C5)N6)c5cc(C(F)(F)F)c(-c6ccc(F)c7sc(N)c(C#N)c67)c(F)c5n4)CC3)C2)no1 [Example 77, (2S,4R)-1-((2R)-2-(3-(7-(2-((7-(2-amino-3-cyano-7-fluorobenzo[b]thiophen-4-yl)-4-(3,8-diazabicyclo[3.2.1]octan-3-yl)-8-fluoro-6-(trifluoromethyl)quinazolin-2-yl)oxy)ethyl)-2,7-diazaspiro[3.5]nonan-2-yl)isoxazol-5-yl)-3-methylbutanoyl)-N-((S)-1-(2′,6′-difluoro-[1,1′-biphenyl]-4-yl)ethyl)-4-hydroxypyrrolidine-2-carboxamide]
25.5	1670	294	CC(C)[C@@H](C(=O)N1C[C@H](O)C[C@H]1C(=O)N[C@@H](C)c1ccc(-c2c(F)cc(F)cc2F)cc1)c1cc(OCC2CCN(CCOc3nc(N4CC5CCC(C4)N5)c4cc(C(F)(F)F)c(-c5ccc(F)c6sc(N)c(C#N)c56)c(F)c4n3)CC2)no1 [Example 78, (2S,4R)-1-((2R)-2-(3-((1-(2-((7-(2-amino-3-cyano-7-fluorobenzo[b]thiophen-4-yl)-4-(3,8-diazabicyclo[3.2.1]octan-3-yl)-8-fluoro-6-(trifluoromethyl)quinazolin-2-yl)oxy)ethyl)piperidin-4-yl)methoxy)isoxazol-5-yl)-3-methylbutanoyl)-4-hydroxy-N-((S)-1-(2′,4′,6′-trifluoro-[1,1′-biphenyl]-4-yl)ethyl)pyrrolidine-2-carboxamide]
8.2	23	23	Cc1ncsc1-c1ccc([C@H](C)NC(=O)[C@@H]2C[C@@H](O)CN2C(=O)[C@@H](NC(=O)CCOCCCN2CCC[C@H]2COc2nc(N3CC4CCC(C3)N4)c3cc(C(F)(F)F)c(-c4ccc(F)c5sc(N)c(C#N)c45)c(F)c3n2)C(C)(C)C)cc1 [Example 91, (2S,4R)-1-((2S)-2-(3-(3-((2S)-2-((((7S)-7-(2-amino-3-cyano-7-fluorobenzo[b]thiophen-4-yl)-4-(3,8-diazabicyclo[3.2.1]octan-3-yl)-8-fluoro-6-(trifluoromethyl)quinazolin-2-yl)oxy)methyl)pyrrolidin-1-yl)propoxy)propanamido)-3,3-dimethylbutanoyl)-4-hydroxy-N—((S)-1-(4-(4-methylthiazol-5-yl)phenyl)ethyl)pyrrolidine-2-carboxamide]
8.9	52	49	C[C@H](NC(=O)[C@@H]1C[C@@H](O)CN1C(=O)[C@@H](NC(=O)CCOCCCN1CCC[C@H]1COc1nc(N2CC3CCC(C2)N3)c2cc(C(F)(F)F)c(-c3ccc(F)c4sc(N)c(C#N)c34)c(F)c2n1)C(C)(C)C)c1ccc(-c2c(F)cc(F)cc2F)cc1 [Example 92, (2S,4R)-1-((2S)-2-(3-(3-((2S)-2-((((7S)-7-(2-amino-3-cyano-7-fluorobenzo[b]thiophen-4-yl)-4-(3,8-diazabicyclo[3.2.1]octan-3-yl)-8-fluoro-6-(trifluoromethyl)quinazolin-2-yl)oxy)methyl)pyrrolidin-1-yl)propoxy)propanamido)-3,3-dimethylbutanoyl)-4-hydroxy-N—((S)-1-(2′,4′,6′-trifluoro-[1,1′-biphenyl]-4-yl)ethyl)pyrrolidine-2-carboxamide]
